Results reported in EP0973746B1, “SUBSTITUTED 3-CYANO QUINOLINES” (Wyeth Holdings Corporation, priority 1997, dated 1998).
Values after ≈ are worked out from the molar mass of the structure shown.

How the values were obtained:
A431 [1] = assay: Inhibition of cell growth by incorporation of [3H]-thymidine, A431; assay type: cell-based, human; conditions: Homo sapiens, A-431, read-out: IC50 A431
Description: Representative compounds of this invention were evaluated for their ability to inhibit the growth of the cell lines described below in vitro. The inhibition is quantitated by measuring the decrease in the incorporation of radio-labeled thymidine when the cells are grown in the presence of the inhibitor. […] Cells were routinely grown in a humidified incubator in 5% CO2 in air.
Cells were seeded at 10,000 cells/well in 96 well plates in complete media and allowed to grow to log phase. At this stage the complete media was replaced with media containing 0.5% FBS (for cells growing in 10% FBS) or media lacking epidermal growth factor (EGF) (for cells growing in serum free media). […] Media with test compound was then removed and complete media was added back. The cells were allowed to grow for 18 hours. This is followed by incubation in [^3H]thymidine (1mCi/ml in serum/EGF media) for 4 hours. Cells were lysed in 0.5 M NaOH for at least 30 min at 37°C and radioactivity analyzed.
The % inhibition of the compound evaluated was determined for at least three different concentrations and the IC50 value evaluated from the dose response curve. […] CPM(control) is in units of counts per minute and is a number expressing the amount of [^3H]thymidine incorporated onto the DNA when cells are grown in the absence of test compound as measured by liquid scintillation counting.

HTB161 = assay: Inhibition of cancer cell growth as measured by cell number, HTB161; assay type: cell-based; conditions: Homo sapiens, 48 h, read-out: IC50 HTB161
A27805 = assay: Inhibition of cancer cell growth as measured by cell number, A27805; assay type: cell-based; conditions: Homo sapiens, 48 h, read-out: IC50 A27805
A2780DDP = assay: Inhibition of cancer cell growth as measured by cell number, A2780DDP; assay type: cell-based; conditions: Homo sapiens, 48 h, read-out: IC50 A2780DDP
MIP = assay: Inhibition of cancer cell growth as measured by cell number, MIP; assay type: cell-based; conditions: Homo sapiens; cell number, Sulforhodamine B, 48 hours exposure; Table 4; read-out: IC50 MIP
SW620 = assay: Inhibition of cancer cell growth as measured by cell number, SW620; assay type: cell-based, human; conditions: Homo sapiens, SW-620, 48 h, read-out: IC50 SW620, cell number, Sulforhodamine B, 48 hours exposure; Table 4;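 also: SW620 was included as a cell line with little or no EGFR or HER2/neu expression, in contrast to receptor-overexpressing lines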
Excerpt: (§1) The cell lines were chosen since they overexpressed epidermal growth factor receptor (EGFR) (i.e. A431) or HER2/neu (SKBR3), or had little to no expression of the these receptors (SW620, LOX, MCF7).

COLO205 = assay: Inhibition of cancer cell growth as measured by cell number, COLO205; assay type: cell-based; conditions: Homo sapiens, COLO 205, 48 h, read-out: IC50 COLO205
CX1 = assay: Inhibition of cancer cell growth as measured by cell number, CX1; assay type: cell-based; conditions: Homo sapiens, CX-1, 48 h, read-out: IC50 CX1
CACO2 = assay: Inhibition of cancer cell growth as measured by cell number, CACO2; assay type: cell-based; conditions: Homo sapiens, Caco-2, 48 h, read-out: IC50 CACO2
HCT15 = assay: Inhibition of cancer cell growth as measured by cell number, HCT15; assay type: cell-based; conditions: Homo sapiens, HCT-15, 48 h, read-out: IC50 HCT15
LS174T = assay: Inhibition of cancer cell growth as measured by cell number, LS174T; assay type: cell-based; conditions: Homo sapiens, 48 h, read-out: IC50 LS174T
SW948 = assay: Inhibition of cancer cell growth as measured by cell number, SW948; assay type: cell-based; conditions: Homo sapiens, SW948, 48 h, read-out: IC50 SW948
CCL228 = assay: Inhibition of cancer cell growth as measured by cell number, CCL228; assay type: cell-based; conditions: Homo sapiens, 48 h, read-out: IC50 CCL228
MCF7 = assay: Inhibition of cancer cell growth as measured by cell number, MCF7; assay type: cell-based, human; conditions: Homo sapiens, MCF7, 48 h, read-out: IC50 MCF7, cell number, Sulforhodamine B, 48 hours exposure; Table 5;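 also: MCF7 was included as a line with little or no EGFR or HER2/neu expression, in contrast to the receptor-overexpressing lines of the panel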
Excerpt: as §1

B7474 = assay: Inhibition of cancer cell growth as measured by cell number, B7474; assay type: cell-based; conditions: Homo sapiens, 48 h, read-out: IC50 B7474
T47D = assay: Inhibition of cancer cell growth as measured by cell number, T47D; assay type: cell-based; conditions: Homo sapiens, 48 h, read-out: IC50 T47D
LX1 = assay: Inhibition of cancer cell growth as measured by cell number, LX1; assay type: cell-based; conditions: Homo sapiens, LX-1, 48 h, read-out: IC50 LX1
A549 = assay: Inhibition of cancer cell growth as measured by cell number, A549; assay type: cell-based; conditions: Homo sapiens, A549, 48 h, read-out: IC50 A549
LOX = assay: Inhibition of cancer cell growth as measured by cell number, LOX; assay type: cell-based, human; conditions: Homo sapiens, LOX, 48 h, read-out: IC50 LOX, cell number, Sulforhodamine B, 48 hours exposure; Table 6;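 also: LOX cells served as a line with low or absent EGFR and HER2/neu expression, in contrast to receptor-overexpressing lines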
Excerpt: as §1

A431 [2] = assay: Inhibition of cancer cell growth as measured by cell number, A431; assay type: cell-based, human; conditions: Homo sapiens, A-431, 48 h, read-out: IC50 A431, cell number, Sulforhodamine B, 48 hours exposure; Table 6;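 also: human A431 line, picked because it overexpresses epidermal growth factor receptor (EGFR)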
Excerpt: as §1

NEC = assay: Inhibition of cancer cell growth as measured by cell number, NEC; assay type: cell-based; conditions: Homo sapiens, 48 h, read-out: IC50 NEC
DU145 = assay: Inhibition of cancer cell growth as measured by cell number, DU145; assay type: cell-based; conditions: Homo sapiens, DU-145, 48 h, read-out: IC50 DU145
PC3 = assay: Inhibition of cancer cell growth as measured by cell number, PC3; assay type: cell-based; conditions: Homo sapiens, PC-3, 48 h, read-out: IC50 PC3
LNCAP = assay: Inhibition of cancer cell growth as measured by cell number, LNCAP; assay type: cell-based; conditions: Homo sapiens, 48 h, read-out: IC50 LNCAP
HL60 = assay: Inhibition of cancer cell growth as measured by cell number, HL60; assay type: cell-based; conditions: Homo sapiens, HL-60, 48 h, read-out: IC50 HL60
CCRF-CFM = assay: Inhibition of cancer cell growth as measured by cell number, CCRF-CFM; assay type: cell-based; conditions: Homo sapiens, 48 h, read-out: IC50 CCRF-CFM
SKBR3 = assay: Inhibition of cancer cell growth as measured by cell number, SKBR3; assay type: cell-based, human; conditions: Homo sapiens, SK-BR-3, 48 h, read-out: IC50 SKBR3, cell number, Sulforhodamine B, 48 hours exposure; Table 7;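 also: SK-BR-3 cells were selected as a line overexpressing HER2/neu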
Excerpt: as §1

[3] = target: recombinant human MEK 1 (MAPKK) and recombinant human ERK2 (MAPK); assay: Mitogen Activated Protein Kinase (MAPK) assay, two component coupled MEK 1 / ERK2; assay type: biochemical; conditions: separate entries for the same compound = evaluated more than one time;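 also: MEK 1-activated ERK2 phosphorylates MBP or Myc peptide with 33P-ATP, filter capture and scintillation counting, inhibitor preincubated with ERK2 30 min at 0 °C, inhibition relative to uninhibited control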
Description: To evaluate inhibitors of the MAP (mitogen activated protein) kinase a two component coupled standard pharmacological test procedure, which measures phosphorylation of a serine/threonine residue in an appropriate sequence in the substrate in the presence and absence of a putative inhibitor, was used. Recombinant human MEK 1 (MAPKK) was first used to activate recombinant human ERK2 (MAPK) and the activated MAPK (ERK) was incubated with substrate (MBP peptide or MYC peptide) in the presence of ATP, Mg^+2 and radiolabeled ^33P ATP. The phosphorylated peptide was captured on a P 81 phosphocellulose filter (paper filter or embedded in microtiter plate) washed and counted by scintillation methods.
The peptide substrates used in the assay are MBP, peptide substrate ([sequence]), or synthetic Myc substrate, ([sequence]•5 TFA. The recombinant enzymes used were prepared as GST fusion proteins of human ERK 2 and human MEK 1. Inhibitor samples were prepared as 10X stocks in 10% DMSO and an appropriate aliquot was used to deliver either 10 ug/ml for a single point screening dose or 100, 10, 1, and 0.1 uM final concentration for a dose response curve. Final DMSO concentrations were less than or equal to 1%.
The reaction was run as follows in 50 mM Tris kinase buffer, pH 7.4 in a reaction volume of 50 ul. The appropriate volume of kinase buffer and inhibitor sample was added to the tube. Appropriate dilution of enzyme was delivered to give 2-5 ug recombinant MAPK (Erk ) per tube. The inhibitor was incubated with MAPK (Erk) for 30 min at 0 deg. […] Recombinant Mek (MAPKK) ( 0.5-2.5 ug) or fully activated Mek (0.05-0.1 units) was added to activate the Erk and incubated for 30 min at 30° C. […] Samples were incubated at 30°C for 30 minutes and the reaction was stopped by adding 25 µl of ice cold 10 %TCA .After samples were chilled on ice for 30 min, 20 µl of sample was transferred onto P 81 phosphocellulose filter paper or appropriate MTP with embedded P 81 filter. Filter papers or MTP were washed 2 times with a large volume of 1% acetic acid, then 2 times with water. The filters or MTP were briefly air dried before addition of scintillant and samples were counted in the appropriate scintillation counter set up for reading ^33P isotope.
The raw data was captured as cpm. Sample replicates were averaged and corrected for background count. Mean cpm data was tabulated by group and % inhibition by a test compound was calculated as (corrected cpm control- corrected. cpm sample/control) X 100 = % inhibition.

| SMILES | IC50 (A431 [1]) | IC50 (HTB161) | IC50 (A27805) | IC50 (A2780DDP) | IC50 (MIP) | IC50 (SW620) | IC50 (COLO205) | IC50 (CX1) | IC50 (CACO2) | IC50 (HCT15) | IC50 (LS174T) | IC50 (SW948) | IC50 (CCL228) | IC50 (MCF7) | IC50 (B7474) | IC50 (T47D) | IC50 (LX1) | IC50 (A549) | IC50 (LOX) | IC50 (A431 [2]) | other results |
| --- | --- | --- | --- | --- | --- | --- | --- | --- | --- | --- | --- | --- | --- | --- | --- | --- | --- | --- | --- | --- | --- |
| N#Cc1cnc2ccc([N+](=O)[O-])cc2c1Nc1cccc(Br)c1 [Example 13, 4-[(3-Bromophenyl)amino]-6-nitro-3-quinolinecarbonitrile] | 50 µM | 97.1 µg/mL (≈ 263 µM) | 9.94 µg/mL (≈ 26.9 µM) | 57 µg/mL (≈ 154 µM) | 7.8 µg/mL (≈ 21.1 µM) | 100 µg/mL (≈ 271 µM) | 45.8 µg/mL (≈ 124 µM) | > 100 µg/mL | 31.5 µg/mL (≈ 85.4 µM) | 100 µg/mL (≈ 271 µM) | 94 µg/mL (≈ 255 µM) | > 100 µg/mL | > 100 µg/mL | 65 µg/mL (≈ 176 µM) | 98.8 µg/mL (≈ 268 µM) | 47.7 µg/mL (≈ 129 µM) | > 100 µg/mL | > 100 µg/mL | > 100 µg/mL | 91 µg/mL (≈ 246 µM) | IC50 (NEC): > 100 µg/mL; IC50 (DU145): 65.8 µg/mL (≈ 178 µM); IC50 (PC3): > 100 µg/mL; IC50 (LNCAP): > 100 µg/mL; IC50 (HL60): 70.2 µg/mL (≈ 190 µM); IC50 (CCRF-CFM): > 100 µg/mL; IC50 (SKBR3): 100 µg/mL (≈ 271 µM); IC50 [3]: > 100 µM |
| N#Cc1cnc2ccc(N)cc2c1Nc1cccc(Br)c1 [Example 14, 6-Amino-4-[(3-bromophenyl)amino]-3-quinolinecarbonitrile] | 0.1 µM | 1.79 µg/mL (≈ 5.29 µM) | 3.59 µg/mL (≈ 10.6 µM) | 5.92 µg/mL (≈ 17.5 µM) | 6.19 µg/mL (≈ 18.2 µM) | 88.8 µg/mL (≈ 262 µM) | > 100 µg/mL | 8.9 µg/mL (≈ 26.2 µM) | 0.989 µg/mL (≈ 2.91 µM) | 6.63 µg/mL (≈ 19.5 µM) | 39.3 µg/mL (≈ 116 µM) | > 100 µg/mL | 39.4 µg/mL (≈ 116 µM) | 80.7 µg/mL (≈ 238 µM) | 20.6 µg/mL (≈ 60.6 µM) | 7.39 µg/mL (≈ 21.8 µM) | 69.6 µg/mL (≈ 205 µM) | 7.68 µg/mL (≈ 22.7 µM) | 2.81 µg/mL (≈ 8.29 µM) | 1.5 µg/mL (≈ 4.42 µM) | IC50 (NEC): 8.28 µg/mL (≈ 24.4 µM); IC50 (DU145): 0.91 µg/mL (≈ 2.68 µM); IC50 (PC3): 41.2 µg/mL (≈ 122 µM); IC50 (LNCAP): 8.98 µg/mL (≈ 26.5 µM); IC50 (HL60): 4.04 µg/mL (≈ 11.9 µM); IC50 (CCRF-CFM): 7.6 µg/mL (≈ 22.4 µM); IC50 (SKBR3): 43.6 µg/mL (≈ 129 µM); IC50 [3]: > 100 µM |
